US11104674B2 (Hoffmann-La Roche Inc., priority 2016, dated 2021)

system: HBsAg; assay: HBsAg assay (chemiluminescence immunoassay of secreted HBsAg); format: cell-based, HBV; settings: Hepatitis B virus, HepG2.2.15, HBsAg secretion, HepG2.2.15 cells, CLIA of culture supernatant
Method: HepG2.2.15 cells (Acs et al. Proc Natl Acad Sci USA, 84, (1987), 4641-4), a constitutively HBV-expressing cell line were cultured in DMEM+Glutamax-I medium (Invitrogen, Carlsbad, Calif., USA), supplemented with 10% fetal bovine serum (Invitrogen) and G418 (Invitrogen) at a final concentration of 200 mg/L and maintained in 5% CO2 at 37° C.
HepG2.2.15 cells were seeded in duplicate into white, 96-well plates at 1.5×10^4 cells/well. The cells were treated with a three-fold serial dilution series of the compounds in DMSO. The final DMSO concentration in all wells was 1% and DMSO was used as no drug control.
The HBsAg chemiluminescence immunoassay (CLIA) kit (Autobio Diagnostics Co., Zhengzhou, China, Catalog number: CL0310-2) was used to measure the levels of secreted HBV antigens semi-quantitatively. For the detection 50 μL/well culture supernatant was used and HBsAg was quantified using HBsAg chemiluminescence immunoassay (CLIA) kit (Autobio Diagnostics Co., Zhengzhou, China, Catalog number: CL0310-2), 50 μL of the supernatant was transferred to the CLIA assay plate and 50 μL of enzyme conjugate reagent was added into each well. The plates were sealed and gently agitated for 1 hour at room temperature. The supernatant-enzyme-mixture was discarded and wells were washed 6 times with 300 μL of PBS.
The residual liquid was removed by plating the CLIA plate right side down on absorbent tissue paper. 25 μL of substrates A and B were added to each well. Luminance was measured using a luminometer (Mithras LB 940 Multimode Microplate Reader) after 10 minutes incubation. Dose-response curves were generated and the IC50 value was extrapolated by using the E-WorkBook Suite (ID Business Solutions Ltd., Guildford, UK). The IC50 was defined as the compound concentration (or conditioned media log dilution) at which HBsAg secretion was reduced by 50% compared to the no drug control.
The compounds according to formula I were tested for their capacity to inhibit HBsAg as described herein.

Row | SMILES | IC50
1 | CC(=O)N(C)c1cc(F)nc(N2CCc3nc(-c4ncccn4)ncc3C2C)c1 (stereo not shown) [Example 154, N-[2-Fluoro-6-(5-methyl-2-pyrimidin-2-yl-7,8-dihydro-5H-pyrido[4,3-d]pyrimidin-6-yl)-4-pyridyl]-N-methyl-acetamide] | 69 nM
2 | CCC(=O)N(C)c1cc(F)nc(N2CCc3nc(-c4ncccn4)ncc3C2C)c1 (stereo not shown) [Example 155, N-[2-Fluoro-6-(5-methyl-2-pyrimidin-2-yl-7,8-dihydro-5H-pyrido[4,3-d]pyrimidin-6-yl)-4-pyridyl]-N-methyl-propanamide] | 86 nM
3 | CC1c2cnc(-c3ncccn3)nc2CCN1c1cc(F)nc(N2CC3(COC3)C2)c1 (stereo not shown) [Example 158, 6-[6-Fluoro-4-(5-methyl-2-pyrimidin-2-yl-7,8-dihydro-5H-pyrido[4,3-d]pyrimidin-6-yl)-2-pyridyl]-2-oxa-6-azaspiro[3.3]heptane] | 48 nM
4 | CC(=O)N1CCN(c2cc(F)nc(N3CCc4nc(-c5ncccn5)ncc4C3C)c2)C(=O)C1 (stereo not shown) [Example 127, 4-Acetyl-1-[2-fluoro-6-(5-methyl-2-pyrimidin-2-yl-7,8-dihydro-5H-pyrido[4,3-d]pyrimidin-6-yl)-4-pyridyl]piperazin-2-one] | 494 nM
5 | CC1c2cnc(-c3ncccn3)nc2CCN1c1cc(N2CCOC(C(N)=O)C2)cc(F)n1 (stereo not shown) [Example 46, 4-[2-Fluoro-6-(5-methyl-2-pyrimidin-2-yl-7,8-dihydro-5H-pyrido[4,3-d]pyrimidin-6-yl)-4-pyridyl]morpholine-2-carboxamide] | 36 nM
6 | CC1c2cnc(-c3ncccn3)nc2CCN1c1cc(N2CCS(=O)(=O)CC2)cc(F)n1 (stereo not shown) [Example 146, 4-[2-Fluoro-6-(5-methyl-2-pyrimidin-2-yl-7,8-dihydro-5H-pyrido[4,3-d]pyrimidin-6-yl)-4-pyridyl]-1,4-thiazinane1,1-dioxide] | 38 nM
7 | CC1c2cnc(-c3ncccn3)nc2CCN1c1cc(F)cc(N2CCOC(C(N)=O)C2)n1 (stereo not shown) [Example 47, 4-[4-fluoro-6-(5-methyl-2-pyrimidin-2-yl-7,8-dihydro-5H-pyrido[4,3-d]pyrimidin-6-yl)-2-pyridyl]morpholine-2-carboxamide] | 33 nM
8 | CC1c2cnc(-c3ncccn3)nc2CCN1c1cc(F)cc(N2CCOC(C)(C)C2)n1 (stereo not shown) [Example 9, 4-[4-fluoro-6-(5-methyl-2-pyrimidin-2-yl-7,8-dihydro-5H-pyrido[4,3-d]pyrimidin-6-yl)-2-pyridyl]-2,2-dimethyl-morpholine] | 29 nM
9 | CC1c2cnc(-c3ncccn3)nc2CCN1c1cc(F)cc(N(C)CCCCC(N)=O)n1 (stereo not shown) [Example 142, 5-[[4-fluoro-6-(5-methyl-2-pyrimidin-2-yl-7,8-dihydro-5H-pyrido[4,3-d]pyrimidin-6-yl)-2-pyridyl]-methyl-amino]pentanamide] | 25 nM
10 | CC1c2cnc(-c3ccccn3)nc2CCN1c1cc(N2CCN(S(C)(=O)=O)CC2)cc(F)n1 (stereo not shown) [Example 71, 6-[6-fluoro-4-(4-methylsulfonylpiperazin-1-yl)-2-pyridyl]-5-methyl-2-(2-pyridyl)-7,8-dihydro-5H-pyrido[4,3-d]pyrimidine] | 8 nM
11 | CC1c2cnc(-c3ccccn3)nc2CCN1c1cc(N2CCC(C(=O)O)C2)cc(F)n1 (stereo not shown) [Example 68, 1-[2-fluoro-6-[5-methyl-2-(2-pyridyl)-7,8-dihydro-5H-pyrido[4,3-d]pyrimidin-6-yl]-4-pyridyl]pyrrolidine-3-carboxylic acid] | 215 nM
12 | CC1c2cnc(-c3ncccn3)nc2CCN1c1cc(N2CCN(S(C)(=O)=O)C(C)C2)cc(F)n1 (stereo not shown) [Example 106, 6-[6-fluoro-4-(3-methyl-4-methylsulfonyl-piperazin-1-yl)-2-pyridyl]-5-methyl-2-pyrimidin-2-yl-7,8-dihydro-5H-pyrido[4,3-d]pyrimidine] | 7 nM
13 | CC1c2cnc(-c3ncccn3)nc2CCN1c1cc(N2CCN(CCC(N)=O)CC2)cc(F)n1 (stereo not shown) [Example 104, 3-[4-[2-fluoro-6-(5-methyl-2-pyrimidin-2-yl-7,8-dihydro-5H-pyrido[4,3-d]pyrimidin-6-yl)-4-pyridyl]piperazin-1-yl]propanamide] | 220 nM
14 | CC1c2cnc(-c3ncccn3)nc2CCN1c1cc(N2CCC(C(N)=O)CC2)cc(F)n1 (stereo not shown) [Example 56, 1-[2-fluoro-6-(5-methyl-2-pyrimidin-2-yl-7,8-dihydro-5H-pyrido[4,3-d]pyrimidin-6-yl)-4-pyridyl]piperidine-4-carboxamide] | 37 nM
15 | CC1c2cnc(-c3ncccn3)nc2CCN1c1cc(F)cc(N2CCC(F)(F)C2)n1 (stereo not shown) [Example 23, 6-[6-(3,3-difluoropyrrolidin-1-yl)-4-fluoro-2-pyridyl]-5-methyl-2-pyrimidin-2-yl-7,8-dihydro-5H-pyrido[4,3-d]pyrimidine] | 5 nM
16 | CC1c2cnc(-c3ncccn3)nc2CCN1c1cc(F)cc(N2CCN(CC(N)=O)CC2)n1 (stereo not shown) [Example 101, 2-[4-[4-fluoro-6-(5-methyl-2-pyrimidin-2-yl-7,8-dihydro-5H-pyrido[4,3-d]pyrimidin-6-yl)-2-pyridyl]piperazin-1-yl]acetamide] | 60 nM
17 | CC1c2cnc(-c3ccccn3)nc2CCN1c1cc(F)cc(N2CCC(C(N)=O)CC2)n1 (stereo not shown) [Example 74, 1-[4-fluoro-6-[5-methyl-2-(2-pyridyl)-7,8-dihydro-5H-pyrido[4,3-d]pyrimidin-6-yl]-2-pyridyl]piperidine-4-carboxamide] | 19 nM
18 | CC1c2cnc(-c3ncccn3)nc2CCN1c1cc(N2CCN(S(C)(=O)=O)CC2=O)cc(F)n1 (stereo not shown) [Example 128, 1-[2-Fluoro-6-(5-methyl-2-pyrimidin-2-yl-7,8-dihydro-5H-pyrido[4,3-d]pyrimidin-6-yl)-4-pyridyl]-4-methylsulfonyl-piperazin-2-one] | 417 nM
19 | CC1c2cnc(-c3ncccn3)nc2CCN1c1cc(N2CCOC(C)(C)C2)cc(F)n1 (stereo not shown) [Example 8, 4-[2-fluoro-6-(5-methyl-2-pyrimidin-2-yl-7,8-dihydro-5H-pyrido[4,3-d]pyrimidin-6-yl)-4-pyridyl]-2,2-dimethyl-morpholine] | 11 nM
20 | CC1c2cnc(-c3ccccn3)nc2CCN1c1cc(F)cc(NCC(F)F)n1 (stereo not shown) [Example 80, N-(2,2-difluoroethyl)-4-fluoro-6-[5-methyl-2-(2-pyridyl)-7,8-dihydro-5H-pyrido[4,3-d]pyrimidin-6-yl]pyridin-2-amine] | 124 nM
21 | CC1c2cnc(-c3ncccn3)nc2CCN1c1cc(N2CCN(CC(=O)O)CC2)cc(F)n1 (stereo not shown) [Example 94, 2-[4-[2-fluoro-6-(5-methyl-2-pyrimidin-2-yl-7,8-dihydro-5H-pyrido[4,3-d]pyrimidin-6-yl)-4-pyridyl]piperazin-1-yl]acetic acid] | 8860 nM
22 | CC1c2cnc(-c3ncccn3)nc2CCN1c1cc(N2CCC(C(N)=O)C2)cc(F)n1 (stereo not shown) [Example 44, 1-[2-fluoro-6-(5-methyl-2-pyrimidin-2-yl-7,8-dihydro-5H-pyrido[4,3-d]pyrimidin-6-yl)-4-pyridyl]pyrrolidine-3-carboxamide] | 54 nM
23 | CC1c2cnc(-c3ncccn3)nc2CCN1c1cc(N2CC(C(=O)O)CC2=O)cc(F)n1 (stereo not shown) [Example 145, 1-[2-Fluoro-6-(5-methyl-2-pyrimidin-2-yl-7,8-dihydro-5H-pyrido[4,3-d]pyrimidin-6-yl)-4-pyridyl]-5-oxo-pyrrolidine-3-carboxylic acid] | 5340 nM
24 | CC1c2cnc(-c3ncccn3)nc2CCN1c1cc(F)cc(N2CC(F)C2)n1 (stereo not shown) [Example 122, 6-[4-fluoro-6-(3-fluoroazetidin-1-yl)-2-pyridyl]-5-methyl-2-pyrimidin-2-yl-7,8-dihydro-5H-pyrido[4,3-d]pyrimidine] | 28 nM
25 | CC1c2cnc(-c3ncccn3)nc2CCN1c1cc(F)cc(N2CC(CO)C2)n1 (stereo not shown) [Example 136, [1-[4-fluoro-6-(5-methyl-2-pyrimidin-2-yl-7,8-dihydro-5H-pyrido[4,3-d]pyrimidin-6-yl)-2-pyridyl]azetidin-3-yl]methanol] | 23 nM
26 | CC(=O)N1CC(Nc2cc(F)cc(N3CCc4nc(-c5ncccn5)ncc4C3C)n2)C1 (stereo not shown) [Example 139, 1-[3-[[4-fluoro-6-(5-methyl-2-pyrimidin-2-yl-7,8-dihydro-5H-pyrido[4,3-d]pyrimidin-6-yl)-2-pyridyl]amino]azetidin-1-yl]ethanone] | 1550 nM
27 | CC1c2cnc(-c3ncccn3)nc2CCN1c1cc(F)cc(N2CCCC2C(=O)O)n1 (stereo not shown) [Example 33, 1-[4-fluoro-6-(5-methyl-2-pyrimidin-2-yl-7,8-dihydro-5H-pyrido[4,3-d]pyrimidin-6-yl)-2-pyridyl]pyrrolidine-2-carboxylic acid] | 93 nM
28 | CC1c2cnc(-c3ncccn3)nc2CCN1c1cc(F)cc(N2CCN(CC(=O)O)CC2)n1 (stereo not shown) [Example 95, 2-[4-[4-fluoro-6-(5-methyl-2-pyrimidin-2-yl-7,8-dihydro-5H-pyrido[4,3-d]pyrimidin-6-yl)-2-pyridyl]piperazin-1-yl]acetic acid] | 3780 nM
